How the values were obtained:
[1] = target: T1, FAAH (Homo sapiens, UniProt O00519); test: FAAH LC-MS/MS screening assay (anandamide hydrolysis by human liver microsomes); conditions: inhibitor at 30 nM, 60 minute incubation at 37° C.
T1 sequence (O00519 1-579): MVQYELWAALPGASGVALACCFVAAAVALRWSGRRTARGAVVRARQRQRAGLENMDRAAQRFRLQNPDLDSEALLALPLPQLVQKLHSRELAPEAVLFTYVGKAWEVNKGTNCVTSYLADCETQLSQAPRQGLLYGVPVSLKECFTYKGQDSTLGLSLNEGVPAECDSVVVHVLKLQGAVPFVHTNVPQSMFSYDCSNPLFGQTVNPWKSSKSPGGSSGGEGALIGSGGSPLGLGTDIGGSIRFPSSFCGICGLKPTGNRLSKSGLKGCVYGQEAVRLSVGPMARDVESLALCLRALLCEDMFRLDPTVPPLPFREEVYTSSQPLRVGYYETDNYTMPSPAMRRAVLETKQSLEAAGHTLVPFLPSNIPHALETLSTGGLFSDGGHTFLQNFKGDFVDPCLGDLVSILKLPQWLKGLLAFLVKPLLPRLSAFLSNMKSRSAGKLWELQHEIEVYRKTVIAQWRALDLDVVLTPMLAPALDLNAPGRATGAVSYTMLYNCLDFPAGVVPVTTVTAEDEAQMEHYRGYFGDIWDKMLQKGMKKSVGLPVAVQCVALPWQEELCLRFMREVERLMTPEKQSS
Experimental: The following are combined in a 5-mL glass tube: anandamide (5 μL of 200 ug/mL), 960 μL of 50 mM ammonium phosphate buffer (pH 7.4) containing 0.125% BSA (w/v), 10 μL of DMSO without (control) or with a FAAH inhibitor (1 μg/mL), and 25 μL of human liver microsomes (31.3/g). Prior to incubation, a 100 μL aliquot is transferred to a 96-well plate containing 0.25 mL of acetonitrile and D4 (deuterated) anandamide (0.2 #M). Each 5-mL tube is capped and placed in a shaking water bath maintained at 37° C. for 60 minutes. After a 60 minute incubation, a second 100 μL aliquot is transferred to a 96-well plate as performed earlier. The 96-well plate is then capped, vortex mixed, and placed on an HPLC for liquid chromatography/tandem mass spectrometry (LC/MS/MS) analyses. HPLC is carried out on a Waters 2790 Alliance system (Milford, Mass.). […] The samples are analyzed using an electrospray probe in the positive ionization mode with the cone voltage set at 40 V and capillary at 3.2 kV. […] An area ratio response (anandamide area response/D4 anandamide area response) was determined for each sample. Percent anandamide hydrolysis of each sample is determined by the following equation, [(T=0 response)−(T=60 response)/T=0 response]*100. The percent hydrolysis normalized to control is determined by dividing the % hydrolysis of test sample by the % hydrolysis of the control sample.

[2] = Metabolic stability in human liver S9 fractions (half-life in vitro); type: in vitro ADME; conditions: pH 7.2, Human S9 ½ life in-vitro, read-out: half-life in human S9 cells
Experimental: Generally, a FAAH inhibitor was incubated in human liver S9 fractions. Incubations were conducted at 37° C. in a potassium phosphate buffer (pH 7.2). NADPH and a regenerating system consisting of NADP, glucose 6-phosphate dehydrogenase were provided to the incubates. Incubations were terminated by the addition of methanol and freezing at −80° C. See, e.g., Singh, R. et al. Rapid Commun. Mass Spectrom., 10: 1019-26 (1996).

Compound	anandamide hydrolysis compared to the control [1] [%]	half-life [2] [min]
CC1(C)CCC(NC(=O)Oc2cccc(-c3cccc(C(N)=O)c3)c2)CC1 [Example 1, (4,4-dimethylcyclohexyl)carbamic acid 3′carbamoylbiphenyl-3-yl ester]	< 50	
NC(=O)c1cccc(-c2cccc(OC(=O)NC3CCCCC3)c2)c1 [KDS-4103]	30	~30
